Experimental data published in patent US7811797B2, “α-isomaltosylglucosaccharide-forming enzyme, process and uses of the same” (Kabushiki Kaisha Hayashibara Seibutsu Kagaku Kenkyujo, priority 2000, dated 2010).
Like-named read-outs stand apart in the source and are kept apart here.

Columns and labels:
[1] = test system: α-isomaltosyl-transferring enzyme; assay: Influence of metal ions on the activity of α-isomaltosyl-transferring enzyme (Strain N75); type: biochemical, Bacillus globisporus N75; conditions: for Relative activity (%): 1 mM of each metal-ion; for influence on the enzyme activity, in words: 1 mM
Method: (§1) The α-isomaltosyl-transferring enzyme was assayed for enzymatic activity by dissolving panose in 100 mM acetate buffer (pH 6.0) to give a concentration of 2% (w/v) for a substrate solution, adding a 0.5 ml of an enzyme solution to 0.5 ml of the substrate solution, enzymatically reacting the mixture solution at 35° C. for 30 min, suspending the reaction mixture by boiling for 10 min, and quantifying glucose, among the cyclotetrasaccharide and glucose formed in the reaction mixture, by the glucose oxidase method. One unit activity of the α-isomaltosyl-transferring enzyme is defined as the enzyme amount that forms one micromole of glucose per minute under the above enzymatic reaction conditions. Throughout the specification, the enzymatic activity of the α-isomaltosyl-transferring enzyme means the unit(s) assayed as above.
(§2) The influence of metal ions on the activity of α-isomaltosyl-transferring enzyme was examined in the presence of 1 mM of each metal-ion according to the assay for the enzyme activity.

[2] = test system: α-isomaltosyl-transferring enzyme; assay: Influence of metal ions on the activity of α-isomaltosyl-transferring enzyme (Strain C9); type: biochemical, Bacillus globisporus C9; conditions: for Relative activity (%): 1 mM of each metal-ion; for influence on the enzyme activity, in words: 1 mM
Method: as §1, with “above. […]” for “above.”

[3] = test system: α-isomaltosylglucosaccharide-forming enzyme; assay: Influence of metal ions on the activity of α-isomaltosylglucosaccharide-forming enzyme (Strain A19); type: biochemical, Arthrobacter globiformis A19; conditions: for Relative activity (%): 1 mM of each metal-ion
[4] = test system: α-isomaltosyl-transferring enzyme; assay: Influence of metal ions on the activity of α-isomaltosyl-transferring enzyme (Strain S1); type: biochemical, Arthrobacter ramosus S1; conditions: for Relative activity (%): 1 mM of each metal-ion
Method: as §1, §2

[5] = test system: α-isomaltosyl-transferring enzyme; type: biochemical, Bacillus globisporus C11; conditions: 1 mM of each metal-ion
Method: as §1, §2

[6] = test system: α-isomaltosylglucosaccharide-forming enzyme; assay: Influence of metal ions on the activity of α-isomaltosylglucosaccharide-forming enzyme (Strain N75); type: biochemical, Bacillus globisporus N75; conditions: for Relative activity (%): 1 mM of each metal-ion; for influence on the enzyme activity, in words: 1 mM
Method: (§3) One unit activity of the α-isomaltosylglucosaccharide-forming enzyme is defined as the enzyme amount that forms one micromole of maltose per minute under the above enzymatic reaction conditions. Throughout the specification, the enzymatic activity of the α-isomaltosylglucosaccharide-forming enzyme means the unit(s) assayed as above.
(§4) The influence of metal ions on the activity of α-isomaltosylglucosaccharide-forming enzyme was examined in the presence of 1 mM of each metal-ion according to the assay for the enzyme activity.

[7] = test system: α-isomaltosylglucosaccharide-forming enzyme; assay: Influence of metal ions on the activity of α-isomaltosylglucosaccharide-forming enzyme (Strain C9); type: biochemical, Bacillus globisporus C9; conditions: for Relative activity (%): 1 mM of each metal-ion
Method: as §3, §4

[8] = test system: α-isomaltosylglucosaccharide-forming enzyme; assay: Influence of metal ions on the activity of α-isomaltosylglucosaccharide-forming enzyme (Strain C11); type: biochemical, Bacillus globisporus C11; conditions: for influence on the enzyme activity, in words: 1 mM; for Relative activity (%): 1 mM of each metal-ion
Method: as §3
The influence of metal ions on the activity of α-isomaltosylglucosaccharide forming enzyme was examined in the presence of 1 mM of each metal-ion according to the assay for the enzyme activity.

[9] = test system: α-isomaltosylglucosaccharide-forming enzyme; assay: Transfer-acceptor specificity, Enzyme of Strain N75; type: biochemical, Bacillus globisporus N75; conditions: acceptor 1.6%, PINE-DEX #100 donor 4%, one unit/g donor, 30° C., pH 6.0, 24 hours
Outline: (§5)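 Each candidate acceptor at 1.6% was combined with 4% partial starch hydrolysate donor and 1 unit/g donor (d.s.b.) of purified enzyme. Incubation ran 24 h at 30 °C, pH 6.0 for the C9, C11 and N75 enzymes and pH 8.4 for A19. Transfer products were detected by GLC for mono- and disaccharide acceptors and HPLC for trisaccharide acceptors.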

[10] = test system: α-isomaltosylglucosaccharide-forming enzyme; assay: Transfer-acceptor specificity, Enzyme of Strain C11; type: biochemical, Bacillus globisporus C11; conditions: acceptor 1.6%, PINE-DEX #100 donor 4%, one unit/g donor, 30° C., pH 6.0, 24 hours
[11] = test system: α-isomaltosylglucosaccharide-forming enzyme; assay: Action on saccharides (substrates), Enzyme of Strain A19; type: biochemical, Arthrobacter globiformis A19; parameters: key: −: it showed no change; +: it showed a slight reduction of the color spot of the substrate and the formation of other reaction product; ++: it showed a high reduction of the color spot of the substrate and the formation of other reaction product; +++: it showed a substantial disappearance of the substrate spot and the formation of other reaction product; conditions: two units/g substrate, substrate 2% (w/v), 30° C., pH 8.4, 24 hours, TLC
Method: (§6) It was tested whether saccharides can be used as substrates for the α-isomaltosylglucosaccharide-forming enzyme. For the purpose, a solution of maltose, maltotriose, maltotetraose, maltopentaose, maltohexaose, maltoheptaose, isomaltose, isomaltotriose, panose, isopanose, trehalose, kojibiose, nigerose, neotrehalose, cellobiose, gentibiose, maltitol, maltotriitol, lactose, sucrose, erlose, selaginose, maltosyl glucoside, or isomaltosyl glucoside was prepared.
(§7) To each of the above solutions was added two units/g substrate of a purified specimen of α-isomaltosylglucosaccharide-forming enzyme from either Bacillus globisporus C9 obtained by the method in Experiment 4-2, Bacillus globisporus C11 obtained by the method in Experiment 7-2, Bacillus globisporus N75 obtained by the method in Experiment 11-2, or Arthrobacter globiformis A19 obtained by the method in Experiment 15-2, and the resulting each solution was adjusted to give a substrate concentration of 2% (w/v) and incubated at 30° C. and pH 6.0, except for using pH 8.4 for the enzyme from Arthrobacter globiformis A19, for 24 hours. The enzyme solutions before and after the enzymatic reactions were respectively analyzed on TLC disclosed in Experiment 1 to confirm whether the enzymes acted on these substrates.

[12] = test system: α-isomaltosylglucosaccharide-forming enzyme; assay: Action on saccharides (substrates), Enzyme of Strain C9; type: biochemical, Bacillus globisporus C9; parameters: key: −: it showed no change; +: it showed a slight reduction of the color spot of the substrate and the formation of other reaction product; ++: it showed a high reduction of the color spot of the substrate and the formation of other reaction product; +++: it showed a substantial disappearance of the substrate spot and the formation of other reaction product; conditions: two units/g substrate, substrate 2% (w/v), 30° C., pH 6.0, 24 hours, TLC
Method: as §6, §7

[13] = test system: α-isomaltosylglucosaccharide-forming enzyme; assay: Action on saccharides (substrates), Enzyme of Strain N75; type: biochemical, Bacillus globisporus N75; parameters: key: −: it showed no change; +: it showed a slight reduction of the color spot of the substrate and the formation of other reaction product; ++: it showed a high reduction of the color spot of the substrate and the formation of other reaction product; +++: it showed a substantial disappearance of the substrate spot and the formation of other reaction product; conditions: two units/g substrate, substrate 2% (w/v), 30° C., pH 6.0, 24 hours, TLC
Method: as §6, §7

[14] = test system: α-isomaltosylglucosaccharide-forming enzyme; assay: Transfer-acceptor specificity, Enzyme of Strain A19; type: biochemical, Arthrobacter globiformis A19; conditions: acceptor 1.6%, PINE-DEX #100 donor 4%, one unit/g donor, 30° C., pH 8.4, 24 hours
Outline: as §5

[15] = test system: α-isomaltosylglucosaccharide-forming enzyme; assay: Action on saccharides (substrates), Enzyme of Strain C11; type: biochemical, Bacillus globisporus C11; parameters: key: −: it showed no change; +: it showed a slight reduction of the color spot of the substrate and the formation of other reaction product; ++: it showed a high reduction of the color spot of the substrate and the formation of other reaction product; +++: it showed a substantial disappearance of the substrate spot and the formation of other reaction product; conditions: two units/g substrate, substrate 2% (w/v), 30° C., pH 6.0, 24 hours, TLC
Method: as §6, §7

[16] = test system: α-isomaltosylglucosaccharide-forming enzyme; assay: Transfer-acceptor specificity, Enzyme of Strain C9; type: biochemical, Bacillus globisporus C9; conditions: acceptor 1.6%, PINE-DEX #100 donor 4%, one unit/g donor, 30° C., pH 6.0, 24 hours
Outline: as §5

SMILES	Relative activity (%) [1] [%]	Relative activity (%) [2] [%]	Relative activity (%) [3] [%]	Relative activity (%) [4] [%]	Relative activity (%) [5] [%]	Relative activity (%) [6] [%]	Relative activity (%) [7] [%]	influence on the enzyme activity, in words [8]	Relative activity (%) [8] [%]	influence on the enzyme activity, in words [6]	further results
[Al+3] [Al^3+]	94	103	37	93	89						
[Ba+2] [Ba^2+]	102	102	99	97	90	84	65	also inhibited	65		influence on the enzyme activity, in words ([7]; 1 mM): also inhibited
[Ca+2] [Ca^2+]	100	101	106	103	91	108	115	activated	109	activated	influence on the enzyme activity, in words [1]: not activated; influence on the enzyme activity, in words [2]: not activated
[Co+2] [Co^2+]	92	103	93	91	89	93	100		96		
[Cu+2] [Cu^2+]	15	57	0	2	56	7	15	greatly inhibited	23	greatly inhibited	influence on the enzyme activity, in words [1]: also inhibited; influence on the enzyme activity, in words [2]: also inhibited; influence on the enzyme activity, in words ([3]; 1 mM): greatly inhibited; influence on the enzyme activity, in words ([4]; 1 mM): also inhibited
[Fe+2] [Fe^2+]			36			82					Relative activity (%) ([1]; listed as Fe^3+): 90%; Relative activity (%) ([3]; listed as Fe^3+): 35%; Relative activity (%) ([4]; listed as Fe^3+): 75%; Relative activity (%) ([5]; listed as Fe^3+): 88%
[Mn+2] [Mn^2+]		106				120	111	activated	142	activated	
[Ni+2] [Ni^2+]	91	102	46	87	89						
OC[C@H]1O[C@@](CO)(O[C@H]2O[C@H](CO)[C@@H](O)[C@H](O)[C@H]2O)[C@@H](O)[C@@H]1O [Sucrose]											Product of transferring reaction, Enzyme of Strain N75 [9]: ++ (a saccharide-transferred product was detected in an amount over ten percent through transfer reaction to acceptor); Product of transferring reaction, Enzyme of Strain C11 [10]: ++ (a saccharide-transferred product was detected in an amount over ten percent through transfer reaction to acceptor); Enzymatic action, Enzyme of Strain A19 [11]: −; Enzymatic action, Enzyme of Strain C9 [12]: −; Enzymatic action, Enzyme of Strain N75 [13]: −; Product of transferring reaction, Enzyme of Stain A19 [14]: ++ (a saccharide-transferred product was detected in an amount over ten percent through transfer reaction to acceptor); Enzymatic action, Enzyme of Strain C11 [15]: −; Product of transferring reaction, Enzyme of Strain C9 [16]: ++ (a saccharide-transferred product was detected in an amount over ten percent through transfer reaction to acceptor)
OC[C@H]1O[C@H](O[C@H]2O[C@H](CO)[C@@H](O)[C@H](O)[C@H]2O)[C@H](O)[C@@H](O)[C@@H]1O [Trehalose]											Product of transferring reaction, Enzyme of Strain N75 [9]: ++ (a saccharide-transferred product was detected in an amount over ten percent through transfer reaction to acceptor); Product of transferring reaction, Enzyme of Strain C11 [10]: ++ (a saccharide-transferred product was detected in an amount over ten percent through transfer reaction to acceptor); Enzymatic action, Enzyme of Strain A19 [11]: −; Enzymatic action, Enzyme of Strain C9 [12]: −; Enzymatic action, Enzyme of Strain N75 [13]: −; Product of transferring reaction, Enzyme of Stain A19 [14]: ++ (a saccharide-transferred product was detected in an amount over ten percent through transfer reaction to acceptor); Enzymatic action, Enzyme of Strain C11 [15]: −; Product of transferring reaction, Enzyme of Strain C9 [16]: ++ (a saccharide-transferred product was detected in an amount over ten percent through transfer reaction to acceptor)
